Legend:
[1] = test system: Rattus norvegicus; assay: Effect on behavioural activity in rat assessed as cocaine-induced lever response at 100 mg/kg, ip pretreated with cocaine for 80 mins by drug-discrimination studies; assay type: functional; details: route intraperitoneal
[2] = test system: Mus musculus; assay: Antidepressant activity in ip dosed mouse assessed as time to reach peak stimulation of locomotor activity; assay type: functional
[3] = test system: Rattus norvegicus; assay: Effect on behavioural activity in rat assessed as cocaine-induced lever response at 50 mg/kg, ip pretreated with cocaine for 80 mins by drug-discrimination studies; assay type: functional; details: route intraperitoneal
[4] = target: Sodium-dependent noradrenaline transporter (Homo sapiens, UniProt P23975); assay: Displacement of [125I]RTI55 from cloned human NET expressed in HEK293 cells; assay type: cell-based
[5] = test system: Mus musculus; assay: Antidepressant activity in ip dosed mouse assessed as stimulation of locomotor activity relative to cocaine; assay type: functional
[6] = test system: Rattus norvegicus; assay: Effect on behavioural activity in rat assessed as cocaine-induced lever response at 10 mg/kg, ip pretreated with cocaine for 80 mins by drug-discrimination studies; assay type: functional; details: route intraperitoneal
[7] = test system: Rattus norvegicus; assay: Effect on behavioural activity in rat assessed as cocaine-induced lever response at 25 mg/kg, ip pretreated with cocaine for 80 mins by drug-discrimination studies; assay type: functional; details: route intraperitoneal
[8] = test system: Mus musculus; assay: Antidepressant activity in ip dosed mouse assessed as duration of locomotor activity; assay type: functional
[9] = test system: Mus musculus; assay: Antidepressant activity in ip dosed mouse assessed as stimulation of locomotor activity; assay type: functional
[10] = test system: Rattus norvegicus; assay: Effect on behavioural activity in rat assessed as cocaine-induced lever response at 100 mg/kg, ip pretreated with cocaine for 45 mins by drug-discrimination studies; assay type: functional; details: route intraperitoneal
[11] = target: Sodium-dependent serotonin transporter (Homo sapiens, UniProt P31645); assay: biochemical; assay type: cell-based, HEK293
[12] = test system: Rattus norvegicus; assay: Effect on behavioural activity in rat assessed as cocaine-induced lever response at 10 mg/kg, ip pretreated with cocaine for 45 mins by drug-discrimination studies; assay type: functional; details: route intraperitoneal
[13] = target: Sodium-dependent dopamine transporter (Homo sapiens, UniProt Q01959); assay: Displacement of [125I]RTI55 from cloned human DAT expressed in HEK293 cells; assay type: cell-based
Chain of Sodium-dependent dopamine transporter (Q01959 whole entry): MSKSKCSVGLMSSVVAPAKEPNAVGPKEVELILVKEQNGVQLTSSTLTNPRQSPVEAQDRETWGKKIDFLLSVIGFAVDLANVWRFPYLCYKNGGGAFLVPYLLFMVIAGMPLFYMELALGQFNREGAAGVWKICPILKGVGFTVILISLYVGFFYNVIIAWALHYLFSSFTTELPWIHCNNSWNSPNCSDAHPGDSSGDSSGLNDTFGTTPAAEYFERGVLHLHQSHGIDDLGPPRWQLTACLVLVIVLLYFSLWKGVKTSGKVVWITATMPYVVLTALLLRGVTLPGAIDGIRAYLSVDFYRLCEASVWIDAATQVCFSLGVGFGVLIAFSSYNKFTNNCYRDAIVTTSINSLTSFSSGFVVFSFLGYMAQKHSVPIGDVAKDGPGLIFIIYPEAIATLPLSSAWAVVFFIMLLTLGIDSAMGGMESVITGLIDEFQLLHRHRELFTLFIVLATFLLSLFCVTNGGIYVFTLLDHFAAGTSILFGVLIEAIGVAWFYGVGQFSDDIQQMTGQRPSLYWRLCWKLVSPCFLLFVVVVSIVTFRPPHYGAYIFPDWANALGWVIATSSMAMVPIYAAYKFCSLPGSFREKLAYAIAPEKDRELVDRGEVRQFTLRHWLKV

Chain of Sodium-dependent noradrenaline transporter (P23975 whole entry): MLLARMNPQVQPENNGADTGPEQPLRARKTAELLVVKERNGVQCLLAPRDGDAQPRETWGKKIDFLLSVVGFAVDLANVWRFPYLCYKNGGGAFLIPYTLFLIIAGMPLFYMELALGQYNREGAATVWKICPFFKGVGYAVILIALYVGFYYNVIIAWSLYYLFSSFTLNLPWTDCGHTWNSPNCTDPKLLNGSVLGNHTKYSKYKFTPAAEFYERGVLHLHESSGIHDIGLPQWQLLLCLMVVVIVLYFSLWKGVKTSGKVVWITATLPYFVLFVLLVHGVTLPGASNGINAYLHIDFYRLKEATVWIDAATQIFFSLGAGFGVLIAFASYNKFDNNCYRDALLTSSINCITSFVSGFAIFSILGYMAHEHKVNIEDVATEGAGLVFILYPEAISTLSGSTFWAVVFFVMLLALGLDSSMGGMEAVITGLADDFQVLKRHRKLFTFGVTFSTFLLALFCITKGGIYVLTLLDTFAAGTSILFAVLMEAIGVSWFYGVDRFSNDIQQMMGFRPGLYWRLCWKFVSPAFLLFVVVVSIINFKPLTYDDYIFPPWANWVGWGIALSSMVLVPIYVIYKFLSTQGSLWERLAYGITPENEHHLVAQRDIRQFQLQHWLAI
Chain of Sodium-dependent serotonin transporter (P31645 whole entry): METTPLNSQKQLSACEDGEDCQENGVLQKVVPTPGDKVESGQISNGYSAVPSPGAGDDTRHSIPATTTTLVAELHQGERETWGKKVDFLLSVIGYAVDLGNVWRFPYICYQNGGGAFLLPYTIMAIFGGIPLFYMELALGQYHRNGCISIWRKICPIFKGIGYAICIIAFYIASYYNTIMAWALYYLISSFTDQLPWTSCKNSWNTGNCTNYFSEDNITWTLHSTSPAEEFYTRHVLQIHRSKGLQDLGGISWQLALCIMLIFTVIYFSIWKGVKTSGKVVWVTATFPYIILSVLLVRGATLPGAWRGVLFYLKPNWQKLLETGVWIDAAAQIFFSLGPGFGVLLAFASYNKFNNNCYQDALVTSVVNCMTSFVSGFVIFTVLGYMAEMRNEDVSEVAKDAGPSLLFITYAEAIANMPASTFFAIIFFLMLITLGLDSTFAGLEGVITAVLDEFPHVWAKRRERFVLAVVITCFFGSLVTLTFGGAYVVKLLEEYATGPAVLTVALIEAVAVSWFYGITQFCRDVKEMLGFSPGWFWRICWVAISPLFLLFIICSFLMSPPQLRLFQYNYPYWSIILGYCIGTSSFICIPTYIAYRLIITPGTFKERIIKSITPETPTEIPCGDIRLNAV

## CC(NC(C)(C)C)C(=O)c1ccc(Br)cc1 (configuration not stated)
[1]
  Activity: 0.5%
[2]
  Time to peak locomotor stimulation: 140 min
[3]
  Activity: 20%
[4]
  Ki: > 10 µM
[5]
  Activity: 54%
[6]
  Activity: 1.7%
[7]
  Activity: 16.7%
[8]
  Time: 160 min
[9]
  ED50: 29.5 mg/kg

## CC(NC(C)(C)C)C(=O)c1ccc(F)c(F)c1 (configuration not stated)
[10]
  Activity: 63.9%
[11]
  Ki: > 10 µM
[2]
  Time to peak locomotor stimulation: 10 min
[4]
  Ki: > 10 µM
[5]
  Activity: 58%
[12]
  Activity: 1.7%
[13]
  Ki: > 10 µM
[8]
  Time: 60 min

From ChEMBL document CHEMBL1156106 (J Med Chem, 2009)
